Data on seven molecules can be found in ChEMBL document CHEMBL5446079, “Affinity Biochemical Literature for EUbOPEN Chemogenomic Library” (2024).

The IC50 is the concentration that gives 50% inhibition. Low values mean inhibition by little substance, high ones a need for much substance. A word on the Kd: it is the free concentration of one partner at which half of the binding sites on the other are occupied at equilibrium, for simple one-to-one binding. High values mean a looser complex, low ones a tighter complex.

Test [1] deals with Chromatin remodeling regulator CECR2 (Homo sapiens, UniProt Q9BXF3).
Test [2] addresses Nucleosome-remodeling factor subunit BPTF (Homo sapiens, UniProt Q12830).
In test [3] the target is Dual specificity protein kinase CLK4 (Homo sapiens, UniProt Q9HAZ1).
Test [4] has as its target Dual specificity protein kinase CLK1 (Homo sapiens, UniProt P49759).
The target in test [5] is Dual specificity protein kinase CLK2 (Homo sapiens, UniProt P49760).
Test [6] deals with CDK8/Cyclin C (Homo sapiens, UniProt P49336). It counts as protein-complex assay.
For test [7], the target named is T1, Bromodomain-containing protein 9 (Homo sapiens, UniProt Q9H8M2).
T1 sequence (Q9H8M2 whole entry): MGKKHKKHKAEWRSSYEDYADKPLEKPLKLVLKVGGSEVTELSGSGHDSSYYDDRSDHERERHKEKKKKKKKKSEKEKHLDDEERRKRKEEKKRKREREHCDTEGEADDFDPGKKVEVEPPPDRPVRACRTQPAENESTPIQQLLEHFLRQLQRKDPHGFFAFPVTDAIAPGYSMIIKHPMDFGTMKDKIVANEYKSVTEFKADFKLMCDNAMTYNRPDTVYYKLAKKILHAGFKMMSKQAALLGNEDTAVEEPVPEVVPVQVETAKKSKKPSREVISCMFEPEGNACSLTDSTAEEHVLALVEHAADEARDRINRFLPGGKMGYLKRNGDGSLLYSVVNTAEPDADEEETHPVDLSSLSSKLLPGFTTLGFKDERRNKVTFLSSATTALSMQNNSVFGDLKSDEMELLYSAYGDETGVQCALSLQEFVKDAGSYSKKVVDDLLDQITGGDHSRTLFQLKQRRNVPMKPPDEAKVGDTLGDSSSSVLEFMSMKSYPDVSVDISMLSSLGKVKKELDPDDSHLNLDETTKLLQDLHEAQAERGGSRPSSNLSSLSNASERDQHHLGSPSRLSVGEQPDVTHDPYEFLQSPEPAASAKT

The target in test [8] is SRSF protein kinase 2 (Homo sapiens, UniProt P78362).
The target of test [9] is SRSF protein kinase 1 (Homo sapiens, UniProt Q96SB4).
In test [10] the target is T2, Histone-lysine N-methyltransferase NSD3 (Homo sapiens, UniProt Q9BZ95).
T2 sequence (Q9BZ95 whole entry): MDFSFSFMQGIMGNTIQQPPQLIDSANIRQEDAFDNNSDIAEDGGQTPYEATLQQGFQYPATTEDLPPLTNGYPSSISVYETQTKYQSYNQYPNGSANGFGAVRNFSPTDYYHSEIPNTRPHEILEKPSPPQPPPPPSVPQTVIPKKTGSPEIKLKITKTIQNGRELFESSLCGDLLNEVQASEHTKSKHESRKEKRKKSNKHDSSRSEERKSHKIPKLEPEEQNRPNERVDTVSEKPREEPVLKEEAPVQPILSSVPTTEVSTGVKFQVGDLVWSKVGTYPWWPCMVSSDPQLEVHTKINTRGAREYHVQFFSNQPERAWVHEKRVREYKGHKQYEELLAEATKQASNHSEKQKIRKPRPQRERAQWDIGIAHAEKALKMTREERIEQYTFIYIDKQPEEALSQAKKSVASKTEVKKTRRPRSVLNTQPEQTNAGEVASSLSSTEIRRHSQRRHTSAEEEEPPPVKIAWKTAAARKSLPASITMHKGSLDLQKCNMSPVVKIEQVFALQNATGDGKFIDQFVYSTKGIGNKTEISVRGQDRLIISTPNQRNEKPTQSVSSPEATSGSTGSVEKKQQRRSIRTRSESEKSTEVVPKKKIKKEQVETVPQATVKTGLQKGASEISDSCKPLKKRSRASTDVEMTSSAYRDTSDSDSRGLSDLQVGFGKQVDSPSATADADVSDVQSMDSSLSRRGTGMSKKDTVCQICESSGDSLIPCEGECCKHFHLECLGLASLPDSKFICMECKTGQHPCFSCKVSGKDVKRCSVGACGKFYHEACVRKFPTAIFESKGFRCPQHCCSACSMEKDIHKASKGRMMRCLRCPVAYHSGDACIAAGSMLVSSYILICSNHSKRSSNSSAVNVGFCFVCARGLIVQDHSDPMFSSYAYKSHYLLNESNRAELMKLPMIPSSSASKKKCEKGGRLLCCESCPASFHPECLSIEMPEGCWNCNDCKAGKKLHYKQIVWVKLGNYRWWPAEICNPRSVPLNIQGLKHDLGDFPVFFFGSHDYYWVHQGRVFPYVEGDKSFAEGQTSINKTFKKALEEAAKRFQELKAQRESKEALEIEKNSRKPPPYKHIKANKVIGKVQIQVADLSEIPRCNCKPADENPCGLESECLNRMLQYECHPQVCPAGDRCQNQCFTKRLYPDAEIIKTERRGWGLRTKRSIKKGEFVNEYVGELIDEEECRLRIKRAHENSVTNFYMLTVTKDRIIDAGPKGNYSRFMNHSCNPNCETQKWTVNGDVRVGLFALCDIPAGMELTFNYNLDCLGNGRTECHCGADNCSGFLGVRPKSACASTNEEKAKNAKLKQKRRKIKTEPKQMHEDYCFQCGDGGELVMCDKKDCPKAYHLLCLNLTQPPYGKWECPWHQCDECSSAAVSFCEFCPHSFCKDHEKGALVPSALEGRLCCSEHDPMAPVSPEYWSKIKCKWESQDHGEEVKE

Test [11] deals with Protein-arginine deiminase type-4 (Homo sapiens, UniProt Q9UM07).

The structures appear in SMILES notation.

Chain of Dual specificity protein kinase CLK1 (P49759 whole entry): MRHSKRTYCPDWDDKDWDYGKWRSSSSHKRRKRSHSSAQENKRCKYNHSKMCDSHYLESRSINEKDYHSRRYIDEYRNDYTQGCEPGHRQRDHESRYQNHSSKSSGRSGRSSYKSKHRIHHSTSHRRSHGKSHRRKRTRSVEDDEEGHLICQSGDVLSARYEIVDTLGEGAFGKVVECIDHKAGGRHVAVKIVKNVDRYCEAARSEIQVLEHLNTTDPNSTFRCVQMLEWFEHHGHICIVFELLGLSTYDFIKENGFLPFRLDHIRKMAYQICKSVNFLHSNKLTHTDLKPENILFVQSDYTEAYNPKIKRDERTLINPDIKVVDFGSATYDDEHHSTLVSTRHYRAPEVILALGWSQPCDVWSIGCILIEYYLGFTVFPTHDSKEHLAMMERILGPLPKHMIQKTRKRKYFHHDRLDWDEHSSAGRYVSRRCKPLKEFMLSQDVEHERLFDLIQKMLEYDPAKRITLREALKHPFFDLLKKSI
Chain of SRSF protein kinase 1 (Q96SB4 whole entry): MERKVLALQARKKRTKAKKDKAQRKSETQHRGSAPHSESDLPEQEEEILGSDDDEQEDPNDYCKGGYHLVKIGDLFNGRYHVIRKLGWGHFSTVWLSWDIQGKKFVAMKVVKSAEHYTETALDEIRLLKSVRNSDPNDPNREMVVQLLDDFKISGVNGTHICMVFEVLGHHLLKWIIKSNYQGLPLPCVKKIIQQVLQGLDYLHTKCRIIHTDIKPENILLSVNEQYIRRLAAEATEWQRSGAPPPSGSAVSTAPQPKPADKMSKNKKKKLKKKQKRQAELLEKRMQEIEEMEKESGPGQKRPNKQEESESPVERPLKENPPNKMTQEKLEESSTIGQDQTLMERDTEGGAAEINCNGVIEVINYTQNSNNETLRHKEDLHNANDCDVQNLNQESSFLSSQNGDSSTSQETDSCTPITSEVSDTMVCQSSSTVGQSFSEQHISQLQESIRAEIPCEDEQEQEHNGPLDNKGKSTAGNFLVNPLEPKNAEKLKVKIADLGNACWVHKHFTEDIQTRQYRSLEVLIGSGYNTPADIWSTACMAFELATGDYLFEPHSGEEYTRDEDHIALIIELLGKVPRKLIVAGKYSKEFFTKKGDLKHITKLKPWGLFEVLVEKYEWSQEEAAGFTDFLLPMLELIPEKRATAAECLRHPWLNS
Chain of Protein-arginine deiminase type-4 (Q9UM07 whole entry): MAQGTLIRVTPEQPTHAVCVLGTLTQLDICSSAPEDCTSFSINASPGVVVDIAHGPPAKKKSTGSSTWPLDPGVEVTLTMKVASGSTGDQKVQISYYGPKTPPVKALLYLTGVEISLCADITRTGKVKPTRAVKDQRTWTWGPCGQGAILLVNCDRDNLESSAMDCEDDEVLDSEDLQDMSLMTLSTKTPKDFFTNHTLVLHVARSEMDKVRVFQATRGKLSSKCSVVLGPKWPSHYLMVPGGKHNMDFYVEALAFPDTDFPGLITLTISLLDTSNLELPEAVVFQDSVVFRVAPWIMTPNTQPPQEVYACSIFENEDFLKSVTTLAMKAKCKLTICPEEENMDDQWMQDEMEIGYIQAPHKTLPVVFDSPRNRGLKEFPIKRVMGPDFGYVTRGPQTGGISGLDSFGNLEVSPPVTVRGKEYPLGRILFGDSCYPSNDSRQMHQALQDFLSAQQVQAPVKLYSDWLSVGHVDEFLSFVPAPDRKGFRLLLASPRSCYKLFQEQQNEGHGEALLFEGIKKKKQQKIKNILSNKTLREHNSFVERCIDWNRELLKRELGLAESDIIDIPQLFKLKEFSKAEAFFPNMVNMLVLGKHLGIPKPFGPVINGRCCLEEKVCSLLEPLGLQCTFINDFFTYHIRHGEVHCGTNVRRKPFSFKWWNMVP
Chain of Chromatin remodeling regulator CECR2 (Q9BXF3 whole entry): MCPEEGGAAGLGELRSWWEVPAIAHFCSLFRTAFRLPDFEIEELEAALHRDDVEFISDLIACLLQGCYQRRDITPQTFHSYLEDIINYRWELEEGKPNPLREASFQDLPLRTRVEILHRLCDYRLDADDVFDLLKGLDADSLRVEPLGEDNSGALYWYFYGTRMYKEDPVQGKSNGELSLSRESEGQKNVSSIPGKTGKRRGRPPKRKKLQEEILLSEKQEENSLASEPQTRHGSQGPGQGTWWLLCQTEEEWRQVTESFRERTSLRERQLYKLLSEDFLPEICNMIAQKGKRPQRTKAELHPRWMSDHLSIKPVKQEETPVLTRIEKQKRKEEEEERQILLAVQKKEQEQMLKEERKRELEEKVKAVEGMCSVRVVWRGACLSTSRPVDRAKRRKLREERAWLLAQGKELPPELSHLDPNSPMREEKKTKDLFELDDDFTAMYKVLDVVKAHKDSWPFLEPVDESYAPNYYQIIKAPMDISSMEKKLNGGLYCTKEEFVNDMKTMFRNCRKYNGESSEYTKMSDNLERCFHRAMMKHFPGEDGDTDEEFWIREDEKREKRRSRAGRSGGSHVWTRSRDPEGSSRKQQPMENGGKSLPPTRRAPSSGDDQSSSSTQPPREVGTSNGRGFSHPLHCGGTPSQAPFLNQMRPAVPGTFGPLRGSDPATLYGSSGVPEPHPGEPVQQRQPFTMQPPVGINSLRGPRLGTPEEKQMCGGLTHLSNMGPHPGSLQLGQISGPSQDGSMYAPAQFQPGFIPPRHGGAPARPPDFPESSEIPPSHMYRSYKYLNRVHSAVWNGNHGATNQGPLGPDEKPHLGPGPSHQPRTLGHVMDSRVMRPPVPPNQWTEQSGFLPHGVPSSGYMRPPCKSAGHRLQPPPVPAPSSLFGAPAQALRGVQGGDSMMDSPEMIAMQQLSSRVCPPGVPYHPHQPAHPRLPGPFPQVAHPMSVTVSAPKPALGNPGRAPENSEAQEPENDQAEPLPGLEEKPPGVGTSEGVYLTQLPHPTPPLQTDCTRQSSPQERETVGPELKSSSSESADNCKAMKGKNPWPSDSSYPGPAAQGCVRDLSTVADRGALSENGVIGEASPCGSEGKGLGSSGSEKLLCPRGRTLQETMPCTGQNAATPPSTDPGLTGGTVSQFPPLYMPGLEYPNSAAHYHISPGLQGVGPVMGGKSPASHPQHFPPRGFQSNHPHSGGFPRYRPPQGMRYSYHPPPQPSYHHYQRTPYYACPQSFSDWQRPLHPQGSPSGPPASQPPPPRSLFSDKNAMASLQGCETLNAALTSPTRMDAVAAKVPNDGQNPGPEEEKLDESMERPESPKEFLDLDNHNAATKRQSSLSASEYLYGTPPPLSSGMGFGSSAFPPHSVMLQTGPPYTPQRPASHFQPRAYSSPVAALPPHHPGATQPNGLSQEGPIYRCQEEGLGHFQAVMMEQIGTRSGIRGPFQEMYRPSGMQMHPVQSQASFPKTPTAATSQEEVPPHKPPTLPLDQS
Chain of Dual specificity protein kinase CLK4 (Q9HAZ1 whole entry): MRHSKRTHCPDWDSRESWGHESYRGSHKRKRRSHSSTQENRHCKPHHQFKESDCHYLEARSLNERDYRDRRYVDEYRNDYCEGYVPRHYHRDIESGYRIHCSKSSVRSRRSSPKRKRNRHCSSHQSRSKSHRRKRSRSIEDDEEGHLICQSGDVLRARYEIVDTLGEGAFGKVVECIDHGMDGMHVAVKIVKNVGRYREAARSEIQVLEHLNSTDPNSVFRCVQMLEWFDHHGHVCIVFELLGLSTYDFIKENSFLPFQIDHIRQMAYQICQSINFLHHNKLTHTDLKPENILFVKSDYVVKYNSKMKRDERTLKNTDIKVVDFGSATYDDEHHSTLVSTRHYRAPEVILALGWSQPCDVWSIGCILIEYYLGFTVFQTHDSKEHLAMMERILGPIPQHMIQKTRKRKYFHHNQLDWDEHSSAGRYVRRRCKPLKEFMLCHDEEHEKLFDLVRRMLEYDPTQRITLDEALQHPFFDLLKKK
Chain of CDK8/Cyclin C (P49336 whole entry): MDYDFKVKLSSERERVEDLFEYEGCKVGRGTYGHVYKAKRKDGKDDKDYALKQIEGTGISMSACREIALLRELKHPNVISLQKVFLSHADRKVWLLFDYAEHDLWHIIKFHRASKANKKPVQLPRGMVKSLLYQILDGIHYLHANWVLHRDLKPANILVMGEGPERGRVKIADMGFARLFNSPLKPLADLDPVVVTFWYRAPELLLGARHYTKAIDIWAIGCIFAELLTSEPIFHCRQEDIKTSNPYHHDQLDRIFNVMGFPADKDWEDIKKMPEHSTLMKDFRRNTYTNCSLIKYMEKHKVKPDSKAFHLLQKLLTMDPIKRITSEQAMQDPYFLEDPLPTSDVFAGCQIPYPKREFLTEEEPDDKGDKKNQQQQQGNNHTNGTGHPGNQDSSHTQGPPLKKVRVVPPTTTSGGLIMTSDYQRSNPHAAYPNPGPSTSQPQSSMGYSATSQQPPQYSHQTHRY
Chain of CDK8/Cyclin C (P24863 whole entry, further chain): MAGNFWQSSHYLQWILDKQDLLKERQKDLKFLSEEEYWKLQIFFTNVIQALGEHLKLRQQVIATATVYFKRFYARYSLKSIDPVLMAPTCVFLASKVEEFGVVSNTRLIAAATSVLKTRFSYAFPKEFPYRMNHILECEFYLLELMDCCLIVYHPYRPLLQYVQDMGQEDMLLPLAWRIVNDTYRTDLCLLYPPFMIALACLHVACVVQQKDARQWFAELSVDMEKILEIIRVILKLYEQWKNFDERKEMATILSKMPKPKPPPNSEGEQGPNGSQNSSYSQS
Chain of Dual specificity protein kinase CLK2 (P49760 whole entry): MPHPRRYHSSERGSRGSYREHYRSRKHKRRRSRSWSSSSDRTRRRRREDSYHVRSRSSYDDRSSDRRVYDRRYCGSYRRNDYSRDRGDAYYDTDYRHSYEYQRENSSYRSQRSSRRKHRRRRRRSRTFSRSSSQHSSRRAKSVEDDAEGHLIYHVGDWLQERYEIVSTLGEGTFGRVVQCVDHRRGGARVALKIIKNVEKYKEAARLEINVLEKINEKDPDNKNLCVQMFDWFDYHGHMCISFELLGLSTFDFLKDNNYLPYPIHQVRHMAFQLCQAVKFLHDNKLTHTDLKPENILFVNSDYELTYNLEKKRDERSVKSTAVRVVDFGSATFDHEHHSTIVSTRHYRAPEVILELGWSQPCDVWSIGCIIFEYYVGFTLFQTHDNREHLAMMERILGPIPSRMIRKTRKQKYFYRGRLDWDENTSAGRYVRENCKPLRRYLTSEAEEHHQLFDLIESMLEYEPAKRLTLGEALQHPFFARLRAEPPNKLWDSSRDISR

As to `CN(C)CCCOc1ccc(-c2cc(NCCCn3cccn3)nc(S(C)(=O)=O)n2)cc1`, the IC50 in test [1] and in test [2] was 30.3 µM each time.
Take `COc1cc(Nc2nc(C)cc(-c3cnn4nc(OC)ccc34)n2)cc(C(F)(F)F)c1`: the IC50 in test [3], in [4] and in [5] was over 10 µM throughout.
On to `CN(C)C(=O)Cn1cc(-c2ccc(-c3nnc4ccccn34)cc2)cn1`, for which the IC50 in [6] was found to be 0.671 µM.
With `CC(=O)c1cc(-c2ccccc2OCC2CC2)c2ncccn12`, the Kd in [7] is over 20 µM.
With `CN(c1ncccc1CNc1ccnc(-c2cc3cc(Cl)ccc3[nH]2)n1)S(C)(=O)=O`, the IC50 in test [8] and in [9] was over 10 µM in each case.
In [10], `Cc1cc(CN)cc(C)c1-c1ncn(C)c1-c1cncn1C` yielded an IC50 of 120 µM.
`CCn1c(-c2nc3cc(C(=O)N4CCCC(N)C4)ccc3n2C)cc2ccccc21` (stereo unspecified) returned an IC50 in [11] of over 100 µM.
